The test system of test [1] is C57BL/6 mice in which steatohepatitis was induced with a methionine-choline deficient diet. Briefly: Steatohepatitis animal model (MCD), curcumin 5-8 and high-concentration EW-7197 (40 mg/kg). The test is classed as in vivo, mouse. The settings on record: for fat accumulation in the liver tissues / fibrosis of liver tissues: MCD-fed mice, EW-7197 40 mg/kg, Western blotting, FIGS. 19 to 24; for fat accumulation in the liver tissues: H&E; for fibrosis of liver tissues: Picrosirius red, Masson's trichrome. As to the method:
8-week-old male C57BL/6 mice weighing 20 to 25 g were purchased from Dae Han Bio Link Co., Ltd. (Chungbuk). Mice were acclimatized for one week under room temperature (25° C.±2° C.) in 60%±5% humidity and a 12-hour light/dark cycle. Mice were fed with a normal diet (Research Diets, RD) and allowed to drink water freely. Afterwards, the mice were randomly divided into five groups according to the fed diets or administered drugs, and the five groups were a group which was fed with a normal diet (Con), a group which was fed with a methionine-choline deficient diet (MCD), a group which was fed with a mixture of an MCD and curcumin 5-8 (1 g of curcumin 5-8 per 1 kg of the diet) (MCD+Cur5-8), a group which was fed with an MCD and to which EW-7197 was orally administered (MCD+EW), and a group which was fed with a mixture of an MCD and curcumin 5-8 and to which EW-7197 was orally administered together (MCD+EW+Cur5-8) (n=10).
EW-7197 was administered directly to the stomach by an oral administration method once every two days at 40 mg/kg. Body weights were measured every week during the experiment period, and liver tissues were harvested after 6 weeks and stored at −80° C. All experiments were performed with the approval of the Institutional Animal Care and Use Committee at Wonju College of Medicine of Yonsei University (YWC-200907-1).
In order to confirm the physiological changes in case of co-administration of a curcumin derivative (Cur5-8) and a TGF-β receptor inhibitor (EW-7197), the liver weights and the concentrations of TG, TC, AST, ALT, and γ-GT in serum were measured. In addition, hydroxyprolin expression was checked as a fibrosis marker in the liver tissues.
Specifically, the weights of the liver tissues harvested in Examples 2-1 and 2-2 were measured before storage.
In Examples 2-1 and 2-2, blood was collected after the experiment was completed, and concentrations of TG, TC, AST, ALT, and γ-GT in serum were measured. In order to measure blood glucose, triglyceride, cholesterol, and AST and ALT concentrations, ELISA kit of Asan Pharm. Co., Ltd. was purchased, and the measuring was performed. γ-GT in the liver was measured by using Mak089 of Sigma-Aldrich, and hydroxyproline was measured by using STA-675 ELISA kit of Cell Biolabs, Inc.
In addition, the hydroxyprolin expression was checked in the liver tissues harvested in Examples 2-1 and 2-2.
In order to check effects of inhibiting fat accumulation in liver tissues and fibrosis in liver tissues in case of co-administration of a curcumin derivative (Cur5-8) and a TGF-β receptor inhibitor (EW-7197), the liver tissues were stained.
The liver tissues harvested in Examples 2-1 and 2-2 were fixed with 10% formaldehyde, the formaldehyde was washed out with running water for more than 12 hours, and then washing was performed with 60% ethanol at a one-hour interval, with 70% ethanol at a one-hour interval, and with 100% ethanol at a one-hour interval. Then, the transparency process in xylene was performed three times for one hour each, and the infiltration process in paraffin was performed twice for one hour each. Then, the paraffin block was cut to a thickness of about […] to obtain slices. After deparaffinization, the slices were stained with hematoxylin and eosin (H&E staining), and blood vessels and lipid droplets in the liver tissues were checked. […]
In addition, H&E-stained liver slices were evaluated by using the NAFLD activity score (NAS) system. […]
(In western blotting, separated proteins are transferred to a membrane and probed.)

For test [2], the system named is lung fibrosis model. The conditions noted are these: bleomycin (BLM); previous studies; cited from earlier work.
The subject of test [3] is liver fibrosis model. The settings on record: carbon tetrachloride (CCL4) administration and bile duct ligation; previous studies; cited from earlier work.
For test [4], the system named is mouse hepatocyte cell lines (AML12). Briefly: TGF-β-induced fibrosis, co-administration of dehydrozingerone derivative and EW-7197 (epithelial-mesenchymal conversion, BODIPY, α-SMA staining). The format is cell-based. The settings on record: 2 ng/ml TGF-β, 24 hours, 10 μM EW-7197, 1 μM Cur or Cur5-8, 10 μM DHZ, DHZ103 or DHZ176. As to the method:
In addition, the curcumin derivative Cur5-8 of Example 1-4 and the TGF-β receptor inhibitor were co-administered, and then fibrosis and fat synthesis and degradation were checked again. […] The control group (Con) was not treated with either TGF-β or the sample. […] After washing with PBS 1×, stained cells were observed. In addition, in order to check the degree of fibrosis of hepatocytes, the cells cultured for 24 hours were fixed with 4% paraformaldehyde and stained by using α-SMA (Santa Cruz Biotechnology, Inc., Dallas, Texas, USA), an Alexafluor 488 (Cell Signaling Technology, Danvers, Massachusetts, USA) antibody, and DAPI (Abcam plc., Cambridge, MA, USA). The cells were mounted with a mounting solution (Fisher Scientific, Hampton, Rockingham, USA), the manufactured sample was photographed using a confocal microscope to obtain photographs of stained cells, and the degree of color development in the photographs of the stained cells was analyzed with the ImageJ program.

Molecules are shown by their SMILES.

`COc1cc(/C=C/C(=O)c2cccc(NC(=O)C(C)C)c2)ccc1O` [Cur5-8, N-{3-[(2E)-3-(4-hydroxy-3-methoxyphenyl)prop-2-enoyl]phenyl}-2-methylpropanamide]: the “AST (aspartate transaminase)” value in test [1] (MCD-fed C57BL/6 mice, 6 weeks, EW-7197 40 mg/kg oral once every two days, curcumin 5-8 1 g per 1 kg diet) was 119.9 ± 3.80 IU/L. For the same compound, in test [1], the “fat accumulation in the liver tissues” value is given as “reduced” and the “fibrosis of liver tissues” value is given as “not improved”.

Consider `Cc1cccc(-c2[nH]c(CNc3ccccc3F)nc2-c2ccc3ncnn3c2)n1` [EW-7197, N-(2-fluorophenyl)-5-(6-methyl-2-pyridinyl)-4-[1,2,4]triazolo[1,5-a]pyridin-6-yl-1H-imidazole-2-methanamine], for which the “tissue fibrosis (lung)” value in test [2] was “suppressing tissue fibrosis”. Moreover, the liver damage result in test [3] is on record as “suppressing liver damage”. Moreover, the “epithelial-mesenchymal conversion caused by TGF-β” value in test [4] (FIG. 16) was “inhibited”. For the same compound, the “fat accumulation / adipogenesis in cells (BODIPY staining)” value in test [4] (FIGS. 16, 17) was “fat accumulation in cells was exhibited”. Moreover, in test [4] (FIGS. 16, 18), the “liver fibrosis (α-SMA staining)” value is listed as “inhibited”. Besides, in test [1], the “fat accumulation in the liver tissues” value is “not inhibited” and the “fibrosis of liver tissues” value is given as “inhibited”.

The record behind these values is patent publication US20230364069A1, “METHOD FOR TREATING NON-ALCOHOLIC STEATOHEPATITIS THROUGH CO-ADMINISTRATION OF CURCUMIN DERIVATIVE AND TGF-B RECEPTOR INHIBITOR” (UNIVERSITY INDUSTRY FOUNDATION, YONSEI UNIVERSITY WONJU …, priority 2021, published 2023).
